Assay results published in patent publication US9181263B2, “Inhibitors of bruton's tyrosine kinase” (PHARMACYCLICS, INC., priority 2007, dated 2015).

Columns and labels:
[1] = Glutathione binding assay; format: physicochemical; details: 5 mM glutathione, 10 μM inhibitor, potassium phosphate buffer, room temperature, HPLC
Procedure: A calculated value (e.g (1/Btk IC50)/Glutathione conjugation rate) as shown in the Table 2) is used to compare compounds for their ratio between potency at inhibiting their target and their non-specific binding to other SH groups, such as those in glutathione. […] Calculated ratios such as these are used to quantitatively compare different compounds and select compounds for further study.
For the glutathione binding assays, 5 mM glutathione, 10 μM Btk inhibitor in DMSO (10 μL) and 6 equivalents of N′N′ Diisopropyl ethyl amine were combined in 1 mL potassium phosphate buffer. The mixture was incubated for 0, 15, 60 minutes at room temperature and the reaction was stopped with 10 equivalents of formic acid. 50 μL of each reaction mixture was injected on HPLC (Mobil Phase A: 0.2% formic acid in water, Mobile Phase B: 0.2% formic acid in acetonitrile, HPLC Column: Metasil Basic 3μ, 150×4.6 mm, 10% B, Gradient: 10% to 90% B, Detection: UV/Vis […]). Rate of reaction was reported as nmole GSH conjugate conversion per minute from the normalized ratio for area under the curve from HPLC chromatograms for both GSH conjugate and the parent.

[2] = tested on: lymphoma cell line DOHH2; assay: DOHH2 cell proliferation assay (Alamar Blue); format: cell-based; details: Homo sapiens, DOHH-2, 72 hours
Procedure: After 72 hours, cell number was measured using Alamar Blue using manufacturer's protocol. A dilution series of untreated cells was run in parallel to verify that the Alamar Blue assay reliably reflected cell number and that growth conditions were not limiting. […] GI50 values were confirmed in two or more separate experiments for each cell line.
Analogs are generated that are Btk inhibitors and that are cytotoxic to the lymphoma cell line DOHH2. For the DOHH2 cell proliferation assay, cells were seeded in 96-well plates in standard growth media (RPMI+10% fetal calf serum) and compounds were added in a 9-point dilution series ranging from 10 uM to 0.04 uM with DMSO at 0.1% final concentration in all wells. After 72 hours, cell number was measured using Alamar Blue using manufacturer's protocol. A dilution series of untreated cells was run in parallel to verify that the Alamar Blue assay reliably reflected cell number and that growth conditions were not limiting.

Glutathione Conj Rate [1]: 0.004525 nmol/min | GI50 [2]: > 10 µM
Compound: CN(C)C/C=C/C(=O)N1CCC[C@@H]1Cn1nc(-c2ccc(Oc3ccccc3)cc2)c2c(N)ncnc21 [Compound 11, (E)-1-((R)-2-((4-amino-3-(4-phenoxyphenyl)-1H-pyrazolo[3,4-d]pyrimidin-1-yl)methyl)pyrolidin-1-yl)-4-(dimethylamino)but-2-en-1-one]
